Test results taken from patent US6737383B1, “Herbicidal oxadiazolidines” (priority 1999, dated 2004).

How the values were obtained:
giant foxtail = assay: Test B pre/postemergence giant foxtail; assay type: in vivo, Setaria faberii
Procedure, shortened: (§1)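 Response is a visual 0-to-10 score relative to untreated plants, where 0 means no effect and 10 means complete control, taken twelve to sixteen days after application. Treatments went onto soil at planting and onto foliage of 1- to 4-leaf plants, using a surfactant-containing non-phytotoxic solvent.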

rape = assay: Test B pre/postemergence rape; assay type: in vivo, Brassica napus
Procedure, shortened: as §1

wheat = assay: Test B pre/postemergence wheat; assay type: in vivo, Triticum aestivum
Procedure, shortened: as §1

morningglory = assay: Test B pre/postemergence morningglory; assay type: in vivo, Ipomoea hederacea
Procedure, shortened: as §1

blackgrass = assay: Test B pre/postemergence blackgrass; assay type: in vivo, Alopecurus myosuroides
Procedure, shortened: as §1

purple nutsedge = assay: Test B pre/postemergence purple nutsedge; assay type: in vivo, Cyperus rotundus
Procedure, shortened: as §1

rice = assay: Test B flood test rice; assay type: in vivo, Oryza sativa
Procedure, shortened: (§2)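 Each value is a visual injury score relative to controls, with 10 meaning complete control and 0 no effect. Evaluation took place twelve to sixteen days after the 2-leaf-stage plants were treated and kept in the greenhouse.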

velvetleaf = assay: Test B pre/postemergence velvetleaf; assay type: in vivo, Abutilon theophrasti
Procedure, shortened: as §1

pigweed = assay: Test B pre/postemergence pigweed; assay type: in vivo, Amaranthus retroflexus
Procedure, shortened: as §1

crabgrass = assay: Test B pre/postemergence crabgrass; assay type: in vivo, Digitaria sanguinalis
Procedure, shortened: as §1

duck salad = assay: Test B flood test duck salad; assay type: in vivo, Heteranthera limosa
Procedure, shortened: as §2

soybean = assay: Test B pre/postemergence soybean; assay type: in vivo, Glycine max
Procedure, shortened: as §1

surinam grass = assay: Test B pre/postemergence surinam grass; assay type: in vivo, Brachiaria decumbens
Procedure, shortened: as §1

corn = assay: Test B pre/postemergence corn; assay type: in vivo, Zea mays
Procedure, shortened: as §1

wild oat = assay: Test B pre/postemergence wild oat; assay type: in vivo, Avena fatua
Procedure, shortened: as §1

bedstraw = assay: Test B pre/postemergence bedstraw; assay type: in vivo, Galium aparine
Procedure, shortened: as §1

[1] = Preemergence, Rate 62 g/ha, scale of 0 to 10 where 0 is no effect and 10 is complete control
[2] = Preemergence, Rate 250 g/ha, scale of 0 to 10 where 0 is no effect and 10 is complete control
[3] = Preemergence, Rate 500 g/ha, scale of 0 to 10 where 0 is no effect and 10 is complete control
[4] = Rate 62 g/ha, Postemergence, scale 0 to 10 (0 no effect, 10 complete control)
[5] = Rate 125 g/ha, Postemergence, scale of 0 to 10 where 0 is no effect and 10 is complete control
[6] = Rate 125 g/ha, Preemergence, scale of 0 to 10 where 0 is no effect and 10 is complete control
[7] = Rate 250 g/ha, Postemergence, scale of 0 to 10 where 0 is no effect and 10 is complete control
[8] = Rate 500 g/ha, Postemergence, scale 0 to 10, 0 no effect, 10 complete control
[9] = Rate 62 g/ha, headed Pre-emergence (flood test species), scale 0 to 10 (0 no effect, 10 complete control)
[10] = Rate 125 g/ha, Pre-emergence, flood test species, scale 0 to 10 where 0 is no effect and 10 is complete control
[11] = Rate 250 g/ha, Pre-emergence, flood-test species, scale 0 to 10, 0 is no effect, 10 is complete control
[12] = Rate 500 g/ha, Pre-emergence, flood test species, scale 0 to 10 (0 no effect, 10 complete control)

CC(C)N(C(=O)n1oc(=O)n(C[Si](C)(C)C)c1=O)c1ccc(F)cc1 [Compound 294]
Giant foxtail plant response rating (giant foxtail; [1]): 7
Giant foxtail plant response rating (giant foxtail; [2]): 10
Plant response rating, Giant foxtail (giant foxtail; [3]): 10
Giant foxtail plant response rating (giant foxtail; [4]): 0
Giant foxtail plant response rating (giant foxtail; [5]): 0
Giant foxtail plant response rating (giant foxtail; [6]): 9
Plant response rating, Giant foxtail (giant foxtail; [7]): 2
Rape plant response rating (rape; [1]): 0
Rape plant response rating (rape; [2]): 0
Plant response rating, Rape (rape; [3]): 3
Rape plant response rating (rape; [4]): 0
Rape plant response rating (rape; [5]): 0
Rape plant response rating (rape; [6]): 0
Plant response rating, Rape (rape; [7]): 2
Wheat plant response rating (wheat; [1]): 0
Wheat plant response rating (wheat; [2]): 0
Plant response rating, Wheat (wheat; [3]): 0
Wheat plant response rating (wheat; [4]): 0
Wheat plant response rating (wheat; [5]): 0
Wheat plant response rating (wheat; [6]): 0
Plant response rating, Wheat (wheat; [7]): 0
Morningglory plant response rating (morningglory; [1]): 0
Morningglory plant response rating (morningglory; [2]): 0
Plant response rating, Morningglory (morningglory; [3]): 0
Morningglory plant response rating (morningglory; [4]): 6
Morningglory plant response rating (morningglory; [5]): 6
Morningglory plant response rating (morningglory; [6]): 0
Plant response rating, Morningglory (morningglory; [7]): 9
Blackgrass plant response rating (blackgrass; [1]): 0
Blackgrass plant response rating (blackgrass; [2]): 6
Plant response rating, Blackgrass (blackgrass; [3]): 10
Blackgrass plant response rating (blackgrass; [4]): 0
Blackgrass plant response rating (blackgrass; [5]): 0
Blackgrass plant response rating (blackgrass; [6]): 3
Plant response rating, Blackgrass (blackgrass; [7]): 7
Blackgrass plant response rating (blackgrass; [8]): 8
Nutsedge plant response rating (purple nutsedge; [1]): 0
Nutsedge plant response rating (purple nutsedge; [2]): 0
Plant response rating, Nutsedge (purple nutsedge; [3]): 0
Nutsedge plant response rating (purple nutsedge; [4]): 0
Nutsedge plant response rating (purple nutsedge; [5]): 0
Nutsedge plant response rating (purple nutsedge; [6]): 0
Plant response rating, Nutsedge (purple nutsedge; [7]): 0
Rice plant response rating (rice; [9]): 0
Rice plant response rating (rice; [10]): 0
Rice plant response rating (rice; [11]): 0
Rice plant response rating (rice; [12]): 0
Velvetleaf plant response rating (velvetleaf; [1]): 0
Velvetleaf plant response rating (velvetleaf; [2]): 3
Plant response rating, Velvetleaf (velvetleaf; [3]): 4
Velvetleaf plant response rating (velvetleaf; [4]): 0
Velvetleaf plant response rating (velvetleaf; [5]): 0
Velvetleaf plant response rating (velvetleaf; [6]): 0
Plant response rating, Velvetleaf (velvetleaf; [7]): 0
Redroot pigweed plant response rating (pigweed; [1]): 0
Redroot pigweed plant response rating (pigweed; [2]): 0
Plant response rating, Redroot pigweed (pigweed; [3]): 2
Redroot pigweed plant response rating (pigweed; [4]): 0
Redroot pigweed plant response rating (pigweed; [5]): 0
Redroot pigweed plant response rating (pigweed; [6]): 0
Plant response rating, Redroot pigweed (pigweed; [7]): 0
Crabgrass plant response rating (crabgrass; [1]): 1
Crabgrass plant response rating (crabgrass; [2]): 9
Plant response rating, Crabgrass (crabgrass; [3]): 10
Crabgrass plant response rating (crabgrass; [4]): 0
Crabgrass plant response rating (crabgrass; [5]): 0
Crabgrass plant response rating (crabgrass; [6]): 9
Plant response rating, Crabgrass (crabgrass; [7]): 2
Ducksalad plant response rating (duck salad; [9]): 0
Ducksalad plant response rating (duck salad; [10]): 0
Ducksalad plant response rating (duck salad; [11]): 0
Ducksalad plant response rating (duck salad; [12]): 0
Soybean plant response rating (soybean; [1]): 0
Soybean plant response rating (soybean; [2]): 0
Plant response rating, Soybean (soybean; [3]): 0
Soybean plant response rating (soybean; [4]): 2
Soybean plant response rating (soybean; [5]): 3
Soybean plant response rating (soybean; [6]): 0
Plant response rating, Soybean (soybean; [7]): 4
B. signalgrass plant response rating (surinam grass; [1]): 0
B. signalgrass plant response rating (surinam grass; [2]): 7
Plant response rating, B. signalgrass (surinam grass; [3]): 9
B. signalgrass plant response rating (surinam grass; [4]): 0
B. signalgrass plant response rating (surinam grass; [5]): 0
B. signalgrass plant response rating (surinam grass; [6]): 7
Plant response rating, B. signalgrass (surinam grass; [7]): 0
B. signalgrass plant response rating (surinam grass; [8]): 0
Corn plant response rating (corn; [1]): 0
Corn plant response rating (corn; [2]): 0
Plant response rating, Corn (corn; [3]): 2
Corn plant response rating (corn; [4]): 0
Corn plant response rating (corn; [5]): 0
Corn plant response rating (corn; [6]): 0
Plant response rating, Corn (corn; [7]): 0
Corn plant response rating (corn; [8]): 0
Wild oats plant response rating (wild oat; [1]): 0
Wild oats plant response rating (wild oat; [2]): 3
Plant response rating, Wild oats (wild oat; [3]): 8
Wild oats plant response rating (wild oat; [4]): 0
Wild oats plant response rating (wild oat; [5]): 0
Plant response rating, Wild oats (wild oat; [7]): 0
Bedstraw plant response rating (bedstraw; [1]): 0
Bedstraw plant response rating (bedstraw; [2]): 0
Plant response rating, Bedstraw (bedstraw; [3]): 0
Bedstraw plant response rating (bedstraw; [4]): 3
Bedstraw plant response rating (bedstraw; [5]): 6
Bedstraw plant response rating (bedstraw; [6]): 0
Plant response rating, Bedstraw (bedstraw; [7]): 8
Bedstraw plant response rating (bedstraw; [8]): 9
